Reference: patent publication EP2264010A1, “Hetarylamidines” (Bayer CropScience AG, priority 2009, dated 2010)

Key:
[1] = logP by HPLC on reversed-phase columns (C 18), EEC Directive 79/831 Annex V.A8; format: physicochemical; settings: c18 reversed-phase hplc, reversed-phase (C 18), read-out: log p
Description: Die Messung der logP Werte erfolgte gemäß EEC Directive 79/831 Annex V.A8 durch HPLC (High Performance Liquid Chromatography) an reversed-phase Säulen (C 18), mit der nachfolgenden Methode: […]

AMARE [2] = test: Herbicidal activity, test type PE; format: in vivo; settings: TEST-TYP PE; for pest or weed control at 320 g/ha: Amaranthus retroflexus, read-out: herbizide Wirkung AMARE; for herbizide Wirkung AMARE: 320 G/HA
MATIN = test: Herbicidal activity, test type PE; format: in vivo; settings: TEST-TYP PE; for pest or weed control at 320 g/ha: read-out: herbizide Wirkung MATIN
SETVI = test: Herbicidal activity, test type PE; format: in vivo; settings: TEST-TYP PE; for pest or weed control at 320 g/ha: read-out: herbizide Wirkung SETVI; for herbizide Wirkung SETVI: 320 G/HA
STEME = test: Herbicidal activity, test type PE; format: in vivo; settings: TEST-TYP PE, read-out: herbizide Wirkung STEME
AMARE [3] = test: Herbicidal activity, test type PO; format: in vivo; settings: TEST-TYP PO, 80 G/HA
VERPE [4] = test: Herbicidal activity, test type PO; format: in vivo; settings: TEST-TYP PO, 80 G/HA
VIOTR [5] = test: Herbicidal activity, test type PO; format: in vivo; settings: TEST-TYP PO, 80 G/HA
ALOMY = test: Herbicidal activity, test type PE; format: in vivo; settings: TEST-TYP PE, 320 G/HA
ECHCG = test: Herbicidal activity, test type PE; format: in vivo; settings: TEST-TYP PE, 320 G/HA
LOLMU = test: Herbicidal activity, test type PE; format: in vivo; settings: TEST-TYP PE, read-out: herbizide Wirkung LOLMU
VERPE [6] = test: Herbicidal activity, test type PE; format: in vivo; settings: TEST-TYP PE; for pest or weed control at 320 g/ha: read-out: herbizide Wirkung VERPE
VIOTR [7] = test: Herbicidal activity, test type PE; format: in vivo; settings: TEST-TYP PE; for pest or weed control at 320 g/ha: read-out: herbizide Wirkung VIOTR; for herbizide Wirkung VIOTR: 320 G/HA
PHBPU = test: Herbicidal activity, test type PO; format: in vivo; settings: TEST-TYP PO, 80 G/HA

CC(=Nc1ncc(C)cc1-c1ccc(F)c(C(F)(F)F)c1)N(C)C [compound 20]
chromatographic logP [1]: 1.3

CCN(C=Nc1ncc(Cl)cc1-c1ccc(F)c(C(F)(F)F)c1)CC [compound 15]
chromatographic logP [1]: 2.59 | pest or weed control at 320 g/ha (AMARE [2]): 80% | pest or weed control at 320 g/ha (MATIN): 80% | pest or weed control at 320 g/ha (SETVI): 80% | pest or weed control at 320 g/ha (STEME): 80% | herbizide Wirkung AMARE (AMARE [3]): 90 | herbizide Wirkung VERPE (VERPE [4]): 80 | herbizide Wirkung VIOTR (VIOTR [5]): 80

Cc1cnc(N=CN2CCCC2)c(-c2ccc(Cl)c(C(F)(F)F)c2)c1 [compound 10]
chromatographic logP [1]: 1.63

CCN(C)C=Nc1ncc(-c2ccc(F)c(C(F)(F)F)c2)cc1C [compound 66]
herbizide Wirkung ALOMY (ALOMY): 80 | pest or weed control at 320 g/ha (AMARE [2]): 90% | herbizide Wirkung ECHCG (ECHCG): 90 | pest or weed control at 320 g/ha (LOLMU): 90% | pest or weed control at 320 g/ha (MATIN): 90% | pest or weed control at 320 g/ha (SETVI): 100% | pest or weed control at 320 g/ha (STEME): 90% | pest or weed control at 320 g/ha (VERPE [6]): 90% | pest or weed control at 320 g/ha (VIOTR [7]): 90% | herbizide Wirkung PHBPU (PHBPU): 80 | herbizide Wirkung VIOTR (VIOTR [5]): 80

CCN(C)C=Nc1ncc(-c2cccc(Cl)c2)cc1C [compound 101]
pest or weed control at 320 g/ha (AMARE [2]): 80% | herbizide Wirkung ECHCG (ECHCG): 85 | pest or weed control at 320 g/ha (LOLMU): 80% | pest or weed control at 320 g/ha (MATIN): 95% | pest or weed control at 320 g/ha (SETVI): 90% | pest or weed control at 320 g/ha (VIOTR [7]): 80% | herbizide Wirkung AMARE (AMARE [3]): 80 | herbizide Wirkung PHBPU (PHBPU): 80

Cc1cnc(N=CN2CCCC2)c(-c2ccc(F)c(C(F)(F)F)c2)c1 [compound 25]
chromatographic logP [1]: 1.46 | pest or weed control at 320 g/ha (AMARE [2]): 80% | pest or weed control at 320 g/ha (SETVI): 80%

Cc1cc(-c2cccc(C(F)(F)F)c2)cnc1N=CN(C)C [compound 76]
pest or weed control at 320 g/ha (AMARE [2]): 90% | pest or weed control at 320 g/ha (SETVI): 100% | pest or weed control at 320 g/ha (VIOTR [7]): 90%

Cc1cc(-c2ccc(Cl)c(C(F)(F)F)c2)cnc1N=CN(C)C [compound 59]
pest or weed control at 320 g/ha (AMARE [2]): 80% | pest or weed control at 320 g/ha (MATIN): 80% | pest or weed control at 320 g/ha (STEME): 80% | pest or weed control at 320 g/ha (VERPE [6]): 80% | pest or weed control at 320 g/ha (VIOTR [7]): 80%

CCN(C)C=Nc1ncc(C)cc1-c1cccc(C(F)(F)F)c1 [compound 32]
pest or weed control at 320 g/ha (AMARE [2]): 80% | pest or weed control at 320 g/ha (MATIN): 90% | pest or weed control at 320 g/ha (SETVI): 90% | pest or weed control at 320 g/ha (VERPE [6]): 80% | pest or weed control at 320 g/ha (VIOTR [7]): 80%

CCN(C)C=Nc1ncc(Cl)cc1-c1ccc(Cl)c(C(F)(F)F)c1 [compound 4]
pest or weed control at 320 g/ha (AMARE [2]): 90% | pest or weed control at 320 g/ha (SETVI): 90% | pest or weed control at 320 g/ha (VIOTR [7]): 80%

Cc1cnc(N=CN2CCCC2)c(-c2ccc(F)c(C(F)(F)F)c2)c1 [compound 147]
pest or weed control at 320 g/ha (VERPE [6]): 90%

CCN(C)C=Nc1ncc(C)cc1-c1ccc(F)c(C(F)(F)F)c1 [compound 142]
herbizide Wirkung AMARE (AMARE [2]): 80 | pest or weed control at 320 g/ha (MATIN): 80% | herbizide Wirkung SETVI (SETVI): 90 | pest or weed control at 320 g/ha (STEME): 90% | herbizide Wirkung VERPE (VERPE [6]; 320 G/HA): 90

CCN(C=Nc1ncc(C)cc1-c1ccc(Cl)c(C(F)(F)F)c1)CC [compound 7]
chromatographic logP [1]: 1.75

FC(F)(F)c1ccc(-c2cc(Cl)cnc2N=CN2CCCC2)cc1Cl [compound 26]
chromatographic logP [1]: 1.98

Cc1cnc(N=CN(C)C)c(-c2cccc(C(F)(F)F)c2)c1 [compound 31]
pest or weed control at 320 g/ha (SETVI): 80% | pest or weed control at 320 g/ha (VERPE [6]): 80%

CC(=Nc1ncc(Cl)cc1-c1ccc(F)c(C(F)(F)F)c1)N1CCCCC1 [compound 22]
chromatographic logP [1]: 1.74

Cc1cnc(N=CN(C)C)c(-c2ccc(F)c(C(F)(F)F)c2)c1 [compound 19]
chromatographic logP [1]: 1.33

CC(=Nc1ncc(C)cc1-c1ccc(Cl)c(C(F)(F)F)c1)N(C)C [compound 9]
chromatographic logP [1]: 0.87

CCN(C)C=Nc1ncc(-c2cccc(C)c2)cc1C [compound 105]
herbizide Wirkung ECHCG (ECHCG): 80 | pest or weed control at 320 g/ha (SETVI): 80%

Cc1cc(-c2ccc(F)c(C(F)(F)F)c2)cnc1N=CN(C)C [compound 181]
herbizide Wirkung AMARE (AMARE [2]): 100 | herbizide Wirkung MATIN (MATIN; 320 G/HA): 90 | herbizide Wirkung VIOTR (VIOTR [7]): 90 | herbizide Wirkung AMARE (AMARE [3]): 80 | herbizide Wirkung PHBPU (PHBPU): 90 | herbizide Wirkung VERPE (VERPE [4]): 80

CCN(C)C=Nc1ncc(C)cc1-c1ccc(Cl)c(C(F)(F)F)c1 [compound 127]
pest or weed control at 320 g/ha (AMARE [2]): 90% | pest or weed control at 320 g/ha (MATIN): 80% | herbizide Wirkung SETVI (SETVI): 90 | herbizide Wirkung VIOTR (VIOTR [7]): 80
